Source: patent US8703796B2, “3H-imidazo [4, 5-B] pyridine-6-carboxamides as anti-inflammatory agents” (Boehringer Ingelheim International GmbH, priority 2008, dated 2014)

Biological target: T1, recombinant human mPGES-1 (Homo sapiens, UniProt O14684)
T1 construct: made in house; host or cells: Rosetta E. coli (microsomal/membrane fraction)
T1 sequence (O14684 1-152): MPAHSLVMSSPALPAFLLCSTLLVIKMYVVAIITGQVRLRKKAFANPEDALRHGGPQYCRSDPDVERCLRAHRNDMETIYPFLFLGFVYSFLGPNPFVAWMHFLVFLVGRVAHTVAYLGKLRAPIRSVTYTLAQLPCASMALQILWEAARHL
Test: mPGES-1 inhibition, HTRF detection of PGE2
Format: biochemical
Method: Microsomes from Rosetta E. coli bacteria expressing recombinant human mPGES-1 is dissolved in 0.1 M KPi pH 7.4 buffer containing 2.5 mM GSH. 50 μl of the enzyme is subsequently dispensed in a 384-well plate. 0.5 μl of the inhibitor dissolved in DMSO at is thereafter added to each well and incubated for 25 minutes at room temperature. Subsequently, 2 μl of PGH2 dissolved in an appropriate solvent is added to each well and after one minute the acidified stop solution containing FeCl2 is added. 4 μl of the total volume is transferred to a separate plate and diluted 750-fold in two separate steps before HTRF detection of PGE2.
The HTRf detection is performed by the use of a commercially available kit from CisBio essentially according to the manufacturer's protocol. Briefly, 10 μl of the diluted sample is transferred to a white 384-well plate. 5 μl of d2 and 5 μl Eu3+-Cryptate labeled anti-PGE2 is added to each well containing samples by the use of a Multidrop. The plate is covered with a plastic self-adhesive film, centrifuged at 1200 rpm for 1 minute and subsequently stored at +4° C. over night.
After over night incubation the fluorescence is measured by the use of an appropriate microplate reader. The fluorescence of europium cryptate, and d2 are measured using the following excitation and emission wavelength, europium cryptate: λmax^ex=307 nm, λmax^em=620 nm and d2: λmax^ex=620 nm, λmax^em=665 nm), respectively. The extent of the specific FRET is measured as a ratio of the emission intensity at 665 nm vs. that at 620 nm. A standard curve using synthetic PGE2 is used to quantify the amount of PGE2 in unknown samples.

SMILES | inhibition at 10 µM | inhibition at 1 µM
Cn1c(Nc2c(Cl)cccc2Cl)nc2cc(C(=O)NC3CCCC(C)(C)C3)cnc21 (stereo not shown) [Example 454, 2-(2,6-Dichlorophenylamino)-N-(3,3-dimethylcyclohexyl)-3-methyl-3H-imidazo[4,5-b]pyridine-6-carboxamide] | 99% | –
Cn1c(Nc2c(Cl)cccc2C(F)(F)F)nc2cc(C(=O)N[C@H]3CC[C@H](C(F)(F)F)CC3)c(OCC(F)F)nc21 [Example 777, 2-(2-Chloro-6-trifluoromethyl-phenylamino)-5-(2,2-difluoro-ethoxy)-N-(trans-4-trifluoromethyl-cyclohexyl)-3-methyl-3H-imidazo[4,5-b]pyridine-6-carboxamide] | – | 98%
O=C(N[C@H]1CC[C@H](C(F)(F)F)CC1)c1cc2nc(Nc3c(Cl)cncc3Cl)[nH]c2nc1OCC(F)(F)F [Example 859, 2-(3,5-Dichloro-pyridin-4-ylamino)-5-(2,2,2-trifluoro-ethoxy)-N-(trans-4-trifluoromethyl-cyclohexyl)-3H-imidazo[4,5-b]pyridine-6-carboxamide] | 89% | –
Cc1ccnc(Br)c1Nc1nc2cc(C(=O)N[C@H]3CC[C@H](C(F)(F)F)CC3)c(OCC(F)F)nc2[nH]1 [Example 795, 2-(2-Bromo-4-methyl-pyridin-3-ylamino)-5-(2,2-difluoro-ethoxy)-N-(trans-4-trifluoromethyl-cyclohexyl)-3H-imidazo[4,5-b]pyridine-6-carboxamide] | 98% | –
O=C(Nc1ccc(Br)cc1)c1cc2nc(Nc3c(F)cccc3C(F)(F)F)[nH]c2nc1OCC(F)F [Example 774, N-(4-Bromo-phenyl)-2-(2-fluoro-6-trifluoromethyl-phenylamino)-5-(2,2-difluoroethoxy)-3H-imidazo[4,5-b]pyridine-6-carboxamide] | – | 100%
CCCC[C@@H](C)NC(=O)c1cnc2[nH]c(Nc3c(Cl)cccc3Cl)nc2c1 [Example 517, (R)-2-(2,6-Dichlorophenylamino)-N-(hex-2-yl)-3H-imidazo[4,5-b]pyridine-6-carboxamide] | 100% | –
O=C(Nc1ccc(Br)cc1)c1cc2nc(Nc3c(Cl)cncc3Cl)[nH]c2nc1OC1CCOC1 (stereo not shown) [Example 791, 2-(3,5-Dichloro-pyridin-4-ylamino)-5-(tetrahydrofuran-3-yl-oxy)-N-(4-bromo-phenyl)-3H-imidazo[4,5-b]pyridine-6-carboxamide] | 89% | –
Cn1c(Nc2cnccc2C(F)(F)F)nc2cc(C(=O)N[C@H]3CC[C@H](C(F)(F)F)CC3)c(OCC(F)F)nc21 [Example 789, 2-(4-Trifluoromethyl-pyridin-3-ylamino)-5-(2,2-difluoro-ethoxy)-N-(trans-4-trifluoromethyl-cyclohexyl)-3-methyl-3H-imidazo[4,5-b]pyridine-6-carboxamide] | 95% | –
O=C(Nc1cc(C(F)(F)F)ccn1)c1cc2nc(Nc3c(Cl)cc(F)cc3Cl)[nH]c2nc1OCC(F)(F)F [Example 819, 2-(2,6-Dichloro-4-fluoro-phenylamino)-5-(2,2,2-trifluoro-ethoxy)-N-(4-trifluoromethyl-pyridin-2-yl)-3H-imidazo[4,5-b]pyridine-6-carboxamide] | 96% | –
Cn1c(Nc2c(Cl)cc(F)cc2Cl)nc2cc(C(=O)NCc3ncccc3C(F)(F)F)c(OCC(F)(F)F)nc21 [Example 813, 2-(2,6-Dichloro-4-fluoro-phenylamino)-5-(2,2,2-trifluoro-ethoxy)-N-((3-trifluoromethyl-pyridin-2-yl)-methyl)-3-methyl-3H-imidazo[4,5-b]pyridine-6-carboxamide] | 99% | –
Cn1c(Nc2c(Cl)cccc2Cl)nc2cc(C(=O)NC3CCC(C(C)(C)C)CC3)cnc21 (stereo not shown) [Example 393, N-(4-tert-Butylcyclohexyl)-2-(2,6-dichlorophenylamino)-3-methyl-3H-imidazo[4,5-b]pyridine-6-carboxamide] | 99% | –
O=C(NCc1ccccc1C(F)(F)F)c1cc2nc(Nc3c(Cl)cc(F)cc3Cl)[nH]c2nc1OCC(F)(F)F [Example 828, 2-(2,6-Dichloro-4-fluoro-phenylamino)-5-(2,2,2-trifluoro-ethoxy)-N-(2-trifluoromethyl-benzyl)-3H-imidazo[4,5-b]pyridine-6-carboxamide] | 98% | –
O=C(Nc1ccc(Br)cc1)c1cc2nc(Nc3ccccc3C(F)(F)F)[nH]c2nc1OCC(F)F [Example 775, N-(4-Bromo-phenyl)-2-(2-trifluoromethyl-phenylamino)-5-(2,2-difluoroethoxy)-3H-imidazo[4,5-b]pyridine-6-carboxamide] | – | 95%
COc1nc2c(cc1C(=O)Nc1ccc(Br)cc1)nc(Nc1c(Cl)cccc1Cl)n2C [Example 377, N-(4-Bromophenyl)-2-(2,6-dichlorophenylamino)-5-methoxy-3-methyl-3H-imidazo[4,5-b]pyridine-6-carboxamide] | 100% | –
O=C(Nc1cc(C(F)(F)F)ccn1)c1cc2nc(Nc3c(Cl)cncc3Cl)[nH]c2nc1OCC(F)F [Example 803, 2-(3,5-Dichloro-pyridin-4-ylamino)-5-(2,2-difluoro-ethoxy)-N-(4-trifluoromethyl-pyridin-2-yl)-3H-imidazo[4,5-b]pyridine-6-carboxamide] | 99% | –
O=C(N[C@H]1CC[C@H](C(F)(F)F)CC1)c1cc2nc(Nc3c(Cl)cncc3Cl)[nH]c2nc1OCC(F)F [Example 862, 2-(3,5-Dichloro-pyridin-4-ylamino)-5-(2,2-difluoro-ethoxy)-N-(trans-4-trifluoromethyl-cyclohexyl)-3H-imidazo[4,5-b]pyridine-6-carboxamide] | 99% | –
O=C(NCc1ccccc1C(F)(F)F)c1cc2nc(Nc3c(Cl)cncc3Cl)[nH]c2nc1OC1CCOC1 (stereo not shown) [Example 790, 2-(3,5-Dichloro-pyridin-4-ylamino)-5-(tetrahydrofuran-3-yl-oxy)-N-((2-trifluoromethyl-phenyl)-methyl)-3H-imidazo[4,5-b]pyridine-6-carboxamide] | 97% | –
CC1(C)CCC(NC(=O)c2cnc3c(c2)nc(Nc2c(Cl)cccc2Cl)n3Cc2ccccc2)CC1 [Example 413, 3-Benzyl-2-(2,6-dichlorophenylamino)-N-(4,4-dimethylcyclohexyl)-3H-imidazo[4,5-b]pyridine-6-carboxamide] | 100% | –
CC(C)n1c(Nc2c(Cl)cccc2Cl)nc2cc(C(=O)NC3CCC(C)(C)CC3)cnc21 [Example 505, 2-(2,6-Dichlorophenylamino)-N-(4,4-dimethylcyclohexyl)-3-isopropyl-3H-imidazo[4,5-b]pyridine-6-carboxamide] | 100% | –
Cn1c(Nc2c(Cl)cncc2Cl)nc2cc(C(=O)Nc3cc(C(F)(F)F)ccn3)c(OCC(F)(F)F)nc21 [Example 852, 2-(3,5-Dichloro-pyridin-4-ylamino)-5-(2,2,2-trifluoro-ethoxy)-N-(4-trifluoromethyl-pyridin-2-yl)-3-methyl-3H-imidazo[4,5-b]pyridine-6-carboxamide] | 95% | –
CCOc1nc2[nH]c(Nc3c(Cl)cncc3Cl)nc2cc1C(=O)NCc1ncccc1C(F)(F)F [Example 843, 2-(3,5-Dichloro-pyridin-4-ylamino)-5-ethoxy-N-((3-trifluoromethyl-pyridin-2-yl)-methyl)-3H-imidazo[4,5-b]pyridine-6-carboxamide] | 99% | –
Cn1c(Nc2c(Cl)cccc2Cl)nc2cc(C(=O)N[C@H]3CC[C@H](C(F)(F)F)CC3)cnc21 [Example 174, 2-(2,6-Dichloro-phenylamino)-3-methyl-3H-imidazo[4,5-b]pyridine-6-carboxylic acid (trans-4-trifluoromethyl-cyclohexyl)-amide] | 99% | –
Cn1c(Nc2c(Cl)cncc2Cl)nc2cc(C(=O)Nc3cc(C(F)(F)F)ccn3)c(OCC(F)F)nc21 [Example 836, 2-(3,5-Dichloro-pyridin-4-ylamino)-5-(2,2-difluoro-ethoxy)-N-(4-trifluoromethyl-pyridin-2-yl)-3-methyl-3H-imidazo[4,5-b]pyridine-6-carboxamide] | 100% | –
COCCOc1nc2[nH]c(Nc3c(Cl)cncc3Cl)nc2cc1C(=O)N[C@H]1CC[C@H](C(F)(F)F)CC1 [Example 866, 2-(3,5-Dichloro-pyridin-4-ylamino)-5-(2-methoxy-ethoxy)-N-(trans-4-trifluoromethyl-cyclohexyl)-3H-imidazo[4,5-b]pyridine-6-carboxamide] | 100% | –
Cn1c(Nc2c(Cl)cc(F)cc2Cl)nc2cc(C(=O)N[C@H]3CC[C@H](C(F)(F)F)CC3)c(OCCF)nc21 [Example 870, 2-(2,6-Dichloro-4-fluoro-phenylamino)-5-(2-fluoro-ethoxy)-N-(trans-4-trifluoromethyl-cyclohexyl)-3-methyl-3H-imidazo[4,5-b]pyridine-6-carboxamide] | 100% | –
